Assay results as given in publication PMC8637440, “Structural Modifications Yield Novel Insights Into the Intriguing Pharmacodynamic Potential of Anti-inflammatory Nitro-Fatty Acids” (Frontiers in Pharmacology, 2021).

What was measured:
COX-2 expression = COX-2 expression in A549 cells (Western blot); assay type: cell-based, human; conditions: 24 h; for COX-2 expression in IL-1β-stimulated A549 cells: 10 µM
Description: Cytoplasmic and nuclear extracts (100 µg each) and 30 µg whole-cell lysates were diluted in 5× Laemmli loading dye and denatured for 10 min at 95°C, loaded on a 10% SDS polyacrylamide gel, and separated by gel electrophoresis for 15 min at 80 V followed by 60 min at 120 V. The separated proteins were blotted onto a nitrocellulose membrane (Hybond-C Extra, Amersham Biosciences Ltd., UK) using the Mini Trans-Blot® module (Bio-Rad, Hercules, California, United States) for 90 min at 90 V. The membrane was blocked with Odyssey blocking buffer (Li-Cor Biosciences, Bad Homburg, Germany) or 5% milk powder in TBS-T (Tris Buffered Saline with 0.1% Tween) for 1 h at room temperature (RT). The membranes were incubated with the primary antibodies overnight at 4°C, and then with the secondary antibodies for 1 h at RT. The primary antibodies were diluted 1:1,000 and the secondary antibodies were diluted 1:10,000 to 1:20,000. […] Upon detection, the membrane was washed three times with 1× PBS-T (Phosphate-Buffered Saline with 0.1% Tween) or TBS-T and finally once with 1× PBS or TBS before the protein–antibody interaction was visualized on an Odyssey Infrared Imaging System (Li-Cor Biosciences) at 700 nm or 800 nm depending on the fluorophore of the secondary antibody.
Suppl. Figure 6: Effects of NFA on cellular COX-2 expression. Representative Western Blot of A549 cells treated with (A) NFA with different carbon chain length and (B) different Michael acceptor position for 24 h without IL-1 β stimulation (1 ng/ml) and the densitometrical evaluation of n=4-5 experiments (C, D). Representative Western Blot of A549 cells stimulated with IL-1 β and subsequent treatment with (E) NFA with different carbon chain length and (F) different Michael acceptor position for 24 h and the densitometrical evaluation of n=4-5 experiments (G, H). Intracellular COX-2 levels were normalized to β-actin and presented as mean + SD. Statistical significance was calculated by one-way ANOVA with Bonferroni post-test. P-values of **** P ≦0.0001, **P ≦0.0021, and *P ≦0.03 are considered significant. COX, cyclooxygenase; DMSO , dimethyl sulfoxide; NFA, nitro fatty acids
(1 picture or pasted object on this page, not shown here)

NF-κB p50 = NF-κB p50 transcription factor ELISA in TNFα-stimulated HCT-116 cells; assay type: cell-based, human; conditions: 14 h preincubation, then 10 ng/ml TNF-α 4 h, HCT-116, ELISA; for inhibition of NF-κB p50 signaling: 10 µM
Description: The Nrf-2 and NF-κB transcription factors in the nuclear extracts were detected using an Nrf-2 Transcription Assay Kit (Cayman Chemical, # 600590) and NF-κB (p65 and p50) Transcription Factor Assay Kit (Cayman Chemical, # 10007889 and # 10006912). Prior to assay performance, the nuclear extracts were generated using a Nuclear Extraction Kit (Cayman Chemical, # 10009277). The assay was performed according to the manufacturer’s instructions. For all kits, the nuclear extracts were incubated overnight at 4°C. Development was carried out for 15–20 min or until the wells turned medium to dark blue. Five minutes after the stop solution had been added, the absorbance was read at 450 nm using a plate reader.
The proteasome inhibitor MG132 ([Lee and Goldberg, 1998]) was used as a positive control, as proteasomal inhibition leads to stabilization of I-κB and thus inhibits the activation of the NF-κB signaling pathway. We used a MG132 incubation period of 4 h as longer incubations have been described to activate NF-κB signaling ([Lee et al., 2013]).
FIGURE 1 Effects of NFA on the NF-κB p65 and p50 signaling pathway in colorectal cancer cells. […] Incubation for 4 h with the proteasome inhibitor MG132 (1 µM) served as the positive control. […] Values are normalized to protein concentration and unstimulated vehicle control. Data are represented as mean ± SD of (A) n = 3 (DMSO, 16.9.9, 9NOA control of right panel, 18.4.4, 18.6.7, and 18.9.10), n = 4 (all other derivatives) and (B) n = 5. Statistical significance was calculated by one-way analysis of variance (ANOVA) with Bonferroni post-test. *p ≤ 0.03, **p ≤ 0.0021, ***p ≤ 0.0002, ****p ≤ 0.0001 were considered significant versus TNF-α treatment.

sEH = target: T1, sEH (Homo sapiens, UniProt P34913); test: Cell-based sEH activity assay in HepG2 cells; parameters: endogenous in cells; host or cells: HepG2; conditions: for inhibition of sEH activity in HepG2 cells: 10 µM, 24 h
T1 sequence (P34913 1-555): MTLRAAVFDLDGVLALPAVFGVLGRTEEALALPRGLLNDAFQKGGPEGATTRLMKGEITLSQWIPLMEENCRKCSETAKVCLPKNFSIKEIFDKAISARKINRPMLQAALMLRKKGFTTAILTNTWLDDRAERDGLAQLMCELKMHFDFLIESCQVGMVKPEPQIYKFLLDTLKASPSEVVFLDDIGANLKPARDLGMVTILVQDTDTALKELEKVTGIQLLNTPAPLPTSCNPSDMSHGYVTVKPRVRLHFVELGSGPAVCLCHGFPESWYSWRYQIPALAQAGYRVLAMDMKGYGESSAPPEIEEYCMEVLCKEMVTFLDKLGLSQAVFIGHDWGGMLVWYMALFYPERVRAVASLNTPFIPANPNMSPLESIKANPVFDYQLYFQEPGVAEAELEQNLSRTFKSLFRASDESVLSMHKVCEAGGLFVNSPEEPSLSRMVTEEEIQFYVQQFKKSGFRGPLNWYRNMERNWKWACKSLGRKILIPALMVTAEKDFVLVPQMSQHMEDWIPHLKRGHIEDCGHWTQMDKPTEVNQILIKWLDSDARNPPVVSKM
Description: sEH activity in the cells was analyzed using a Soluble Epoxide Hydrolase Cell-Based Assay Kit (Cayman Chemical, #600090). […] Following incubation, the cells were processed according to the manufacturer’s instructions. The assay uses an internal signal subtraction to minimize potential errors generated by sEH-independent product formation due esterase mediated hydrolysis. The fluorescence intensity of the samples was measured in a plate reader at excitation/emission wavelengths of 330/465 nm sEH activity was calculated by the 6-methoxy-2-naphthaldehyde standard curve.
FIGURE 3 Effects of NFA on sEH activity. […] Data are the mean ± SEM of n = 3–7. […] The cells were lysed, and hydrolase activity was measured by Epoxy Fluor 7 lysis. […] Statistical significance was calculated by one-way ANOVA with Bonferroni post-test and multiple comparisons against the DMSO control.

| Compound | COX-2 expression in IL-1β-stimulated A549 cells (COX-2 expression) | inhibition of NF-κB p50 signaling (NF-κB p50) | inhibition of sEH activity in HepG2 cells (sEH) | further results |
| --- | --- | --- | --- | --- |
| CCCCCCCCCCCCC=C(CCCC(=O)O)[N+](=O)[O-] [18.5.5, 5-nitro-octadec-5-enoic acid] | highest effects |  |  |  |
| CCCCCCCCCCC=C(CCCCCC(=O)O)[N+](=O)[O-] [18.7.7, 7-nitro-octadec-7-enoic acid] | highest effects | most effective p50 inhibitors |  | COX-2 gene expression in non-stimulated A549 cells (COX-2 expression; without IL-1β): clearly increased COX-2 gene expression |
| CCCCCCCCCC=C(CCCCCCC(=O)O)[N+](=O)[O-] [18.8.8, 8-nitro-octadec-8-enoic acid] | highest effects | most effective p50 inhibitors |  |  |
| CCCCCCCCCC(=CCCCCCCC(=O)O)[N+](=O)[O-] [18.8.9, 9-nitro-octadec-8-enoic acid] |  | most effective p50 inhibitors |  |  |
| CCCCCCCCC=C(CCCCCCCC(=O)O)[N+](=O)[O-] [18.9.9, 9-nitro-octadec-9-enoic acid] |  | most effective p50 inhibitors |  | inhibition at 10 µM (NF-κB p50; Homo sapiens, read-out: inhibition of NF-κB p50 signaling): ~60% |
| CCCCCCCCC(=CCCCCCCCC(=O)O)[N+](=O)[O-] [18.9.10, 10-nitro-octadec-9-enoic acid] |  |  | most efficient enzyme inhibition |  |
| CCCCCCCC=C(CCCCCCCCC(=O)O)[N+](=O)[O-] [18.10.10, 10-nitro-octadec-10-enoic acid] |  |  | most efficient enzyme inhibition |  |
| CCCCCCC=C(CCCCCCCCCC(=O)O)[N+](=O)[O-] [18.11.11, 11-nitro-octadec-11-enoic acid] |  |  | most efficient enzyme inhibition |  |
| CCCCCCCC/C=C\CCCCCCCC(=O)O [OA, oleic acid, reference compound] |  |  | strong suppressive effect | inhibition at 10 µM (sEH; HepG2, 24 h): > 50% |
